{"source": "paper PMC4552778", "about": "(European Journal of Drug Metabolism and Pharmacokinetics, 2014)", "key": {"plasma protein": {"system": "plasma protein", "test": "Micafungin plasma protein binding by ultrafiltration", "type": "in vitro ADME, human", "settings": "37 °C, range"}, "Safety assessments": {"test": "Safety assessments", "type": "in vivo, human", "settings": "six AEs reported by four subjects of 19; single 100 mg IV dose"}, "[1]": {"system": "plasma protein, primarily albumin", "settings": "primarily to albumin; ref Astellas Pharma; Hebert et al. [2005b]; cited from earlier work"}, "[2]": {"settings": "ref Dowell et al. [2007]; cited from earlier work"}}, "note": "Numbered stars: 1 amine (or outer) side, 2 acyl side, 3 side chain; on linkers, the order of the positions; unused ones are H or OH. Bridge positions count the residues as written; N and C are the ends. Square brackets hold non-standard residues; d marks the D form. Peptide text beside a SMILES is read from it. * marks the point of attachment. hTyr(3S-OH,4S-OH,3'-OSO3H) = N[C@H](C(=O)O)[C@H](O)[C@@H](O)c1ccc(O)c(OS(=O)(=O)O)c1; Orn(4R-OH,5R-OH) = O=C([C@H](C[C@@H](O)[C@@H](O)N[*:3])N[*:1])[*:2]; Pro(3S-OH,4S-Me) = C[C@H]1CN[C@H](C(=O)O)[C@H]1O; X1 = CCCCCOc1ccc(-c2cc(-c3ccc(C(=O)*)cc3)no2)cc1; Gln(3R-OH) = NC(=O)C[C@@H](O)[C@H](N)C(=O)O; Hyp = O=C(O)[C@@H]1C[C@@H](O)CN1"}
{"compound": "CCCCCOc1ccc(-c2cc(-c3ccc(C(=O)N[C@H]4C[C@@H](O)[C@@H](O)NC(=O)[C@@H]5[C@@H](O)[C@@H](C)CN5C(=O)[C@H]([C@H](O)CC(N)=O)NC(=O)[C@H]([C@H](O)[C@@H](O)c5ccc(O)c(OS(=O)(=O)O)c5)NC(=O)[C@@H]5C[C@@H](O)CN5C(=O)[C@H]([C@@H](C)O)NC4=O)cc3)no2)cc1", "note": "[micafungin, Micafungin] (X1-[Orn(4R-OH,5R-OH)]T[Hyp][hTyr(3S-OH,4S-OH,3'-OSO3H)][Gln(3R-OH)][Pro(3S-OH,4S-Me)]; lactam 1-C)", "values": [{"measurement": "Protein binding", "setting": "plasma protein; healthy subjects, measurable in three subjects", "value": "92.4–99.0%"}, {"measurement": "Protein binding", "setting": "plasma protein; subjects with severe hepatic dysfunction, measurable in five subjects", "value": "86.1–97.6%"}, {"measurement": "Adverse events: seriousness and relation to drug", "setting": "Safety assessments", "value": "None of these AEs was considered to be serious or to be related to micafungin"}, {"measurement": "Protein bound in plasma", "setting": "[1]", "value": "> 99", "unit": "%"}]}
{"compound": "anidulafungin", "values": [{"measurement": "Lower exposure in subjects with severe hepatic dysfunction compared with healthy controls", "setting": "[2]", "value": 33, "unit": "%"}]}
